What was measured:
Type in all cases: cell-based, human
Leukemia subpanel = assay: NCI60 five-dose, subpanel I; conditions: for GI50: Homo sapiens, read-out: MG-MID (GI50); for GI50 / MG-MID (TGI): subpanel I
Excerpt: (§1) (2) The molar concentration of the compound responsible for total growth inhibition, also known as total growth inhibition (TGI).
(§2) Regarding subpanel selectivity toward certain cancer type, the method of determining a compound's selectivity index is to divide the full panel MG-MID (μM) value by each single subpanel. Values above six indicate high selectivity against the subpanel; moderate selectivity is denoted by values between three and six. Conversely, compounds are termed nonselective if their selectivity is less than three.[30,37]

colon cancer subpanel = assay: NCI60 five-dose, subpanel III; conditions: for GI50: Homo sapiens, read-out: MG-MID (GI50); for GI50 / MG-MID (TGI): subpanel III; for Selectivity index (GI50) / Selectivity index (TGI): full panel MG-MID / subpanel III
Excerpt: as §1, §2

CNS cancer subpanel = assay: NCI60 five-dose, subpanel IV; conditions: for GI50: Homo sapiens, read-out: MG-MID (GI50); for GI50 / MG-MID (TGI): subpanel IV; for Selectivity index (GI50) / Selectivity index (TGI): full panel MG-MID / subpanel IV
Excerpt: as §1, §2

renal cancer subpanel = assay: NCI60 five-dose, subpanel VII; conditions: for GI50: Homo sapiens, read-out: MG-MID (GI50); for GI50 / MG-MID (TGI): subpanel VII; for Selectivity index (GI50) / Selectivity index (TGI): full panel MG-MID / subpanel VII
Excerpt: as §1, §2

prostate cancer subpanel = assay: NCI60 five-dose, subpanel VIII; conditions: for GI50: Homo sapiens, read-out: MG-MID (GI50); for GI50 / MG-MID (TGI): subpanel VIII; for Selectivity index (GI50) / Selectivity index (TGI): full panel MG-MID / subpanel VIII
Excerpt: as §1, §2

Colo 205 cells = assay: Cell cycle analysis by flow cytometry; conditions: treated at IC50; for % G0–G1 / % G2/M / % S: DNA content
Method: Inhibition of the EGFR^WT/COX-2 pathway has been linked to alterations in cell survival and proliferation, as reported.[22,40]
Cell Culture Unit, VACSERA, Cairo, Egypt, conducted an apoptosis investigation.
Results reported as DNA% of each cell cycle phase: (S, G1, G2, M). The following reported procedure was followed; (1) applying compounds 4e and 4f on Colo 205 cell line separately, then the Colo 205 was cultured. (2) The cells were collected in PBS diluted by nanopure water as a single cell suspension (by adding trypsine to dissociate cells). (3) Centrifuge cells by 500×g for 5 min, decant the supernatant. (4) Using PBS wash the cells, gently tapping the tube to resuspend cells. (5) In ice bath fix the cells in 66% cooled ethanol, stored in +4 °C 2 h at least (6) put the sample on bench at room temperature, inverted tube gently to resuspend cells. (7) Centrifuge, discard supernatant, wash and resuspend cells once more time. (8) Gently adding PI solution with RNAase (preventing RNA staining and interfering results), (9) Incubate samples in R.T, dark conditions for 20 min (10) transfer samples into ice, dark conditions. (11) Genteelly tapping to resuspend cells which settled during incubation step. (12) Put sample into flow cytometer and run it. Detect the fluorescence of protium iodide in FL2.[41,42] Additional assessment of the pro-apoptotic effect was performed by using Annexin V-FITC and propidium iodide.

SMILES	GI50 (Leukemia subpanel)	Selectivity index (GI50) (Leukemia subpanel; full panel MG-MID / subpanel I)	MG-MID (TGI) (Leukemia subpanel)	GI50 (colon cancer subpanel)	Selectivity index (GI50) (colon cancer subpanel)	Selectivity index (TGI) (colon cancer subpanel)	MG-MID (TGI) (colon cancer subpanel)	GI50 (CNS cancer subpanel)	Selectivity index (GI50) (CNS cancer subpanel)	Selectivity index (TGI) (CNS cancer subpanel)	MG-MID (TGI) (CNS cancer subpanel)	GI50 (renal cancer subpanel)	Selectivity index (GI50) (renal cancer subpanel)	Selectivity index (TGI) (renal cancer subpanel)	MG-MID (TGI) (renal cancer subpanel)	GI50 (prostate cancer subpanel)	Selectivity index (GI50) (prostate cancer subpanel)	Selectivity index (TGI) (prostate cancer subpanel)	MG-MID (TGI) (prostate cancer subpanel)	% G0–G1 (Colo 205 cells)	further results
N#Cc1c(-c2ccc(F)cc2)nc(SCc2ccc(F)cc2)nc1N1CCNCC1 [4f, 2-((4-Fluorobenzyl)thio)-4-(4-fluorophenyl)-6-(piperazin-1-yl) pyrimidine-5-carbonitrile]	7.63 µM	1.76	21.84 µM	7 µM	1.92	1.54	17.15 µM	14.3 µM	0.94	0.91	28.98 µM	23.2 µM	0.57	0.94	28.11 µM	14.7 µM	0.91	0.89	29.50 µM	55.01%	Selectivity index (TGI) (Leukemia subpanel; full panel MG-MID / subpanel I): 1.21; % G2/M (Colo 205 cells): 5.39%; % S (Colo 205 cells): 39.6%; Cell cycle comment (Colo 205 cells): Cell growth arrest@ G1; Increase of cells at G0–G1 phase vs control (Colo 205 cells): ~1.1 fold
N#Cc1c(-c2ccc(F)cc2)nc(SCc2ccccc2)nc1N1CCNCC1 [4e, 2-(Benzylthio)-4-(4-fluorophenyl)-6-(piperazin-1-yl) pyrimidine-5-carbonitrile]	5.59 µM	1.90	16.17 µM	5.1 µM	2.09	1.79	13.12 µM	12.6 µM	0.85	0.88	26.80 µM	12.2 µM	0.87	0.92	25.75 µM	13.4 µM	0.79	0.86	27.40 µM	61.31%	% G2/M (Colo 205 cells): 2.87%; % S (Colo 205 cells): 35.82%; Cell cycle comment (Colo 205 cells): Cell growth arrest@ G1; Increase of cells at G0–G1 phase vs control (Colo 205 cells): ~1.2 fold

Source: PMC10620772, “Design, synthesis, and biological evaluation of new pyrimidine-5-carbonitrile derivatives as novel anti-cancer, dual EGFR^WT/COX-2 inhibitors with docking studies” (RSC Advances, 2023)
